Laboratory results as given in the NIST ThermoML archive (doi:10.1016/j.jct.2015.02.023).
± gives the expanded uncertainty stated by the source.

Details: 101.33 kPa, Liquid, Vibrating tube method

**Q.** Which mass density (293.15 K) does the source give for `CO[PH](=O)[O-].Cn1cc[n+](C)c1` [1,3-dimethylimidazolium methyl phosphonate] here?
**A.** 1252.5 ± 1.8 kg/m3

**Q.** What about the mass density (303.15 K) of the same compound?
**A.** 1246.4 ± 1.8 kg/m3

**Q.** What about the mass density (313.15 K) of the same compound?
**A.** 1241.7 ± 1.8 kg/m3

**Q.** And the mass density (323.15 K)?
**A.** 1233.4 ± 1.8 kg/m3

**Q.** And the mass density (333.15 K)?
**A.** 1227.2 ± 1.7 kg/m3

**Q.** And the mass density (343.15 K)?
**A.** 1220.8 ± 1.7 kg/m3

**Q.** With `CCn1cc[n+](C)c1.CO[PH](=O)[O-]` [1-ethyl-3-methylimidazolium methyl phosphonate] as the compound, how does the mass density (293.15 K) read?
**A.** 1190.6 ± 1.6 kg/m3

**Q.** And the mass density (303.15 K)?
**A.** 1184.1 ± 1.6 kg/m3

**Q.** And the mass density (313.15 K)?
**A.** 1180.1 ± 1.6 kg/m3

**Q.** What about the mass density (323.15 K) of the same compound?
**A.** 1174 ± 1.6 kg/m3

**Q.** And the mass density (333.15 K)?
**A.** 1168.7 ± 1.6 kg/m3

**Q.** And the mass density (343.15 K)?
**A.** 1163.2 ± 1.5 kg/m3
